Reference: patent US20160038516A1, “COMBINATION CANCER THERAPY USING BISPHOSPHONATES AND ANTI-EGFR AGENTS” (Mone Zaidi Consulting, Inc., priority 2012, published 2016)
Entries after “also recorded” stand apart in the source; their conditions may differ. Each block holds one compound with its values, some of them ahead of it.

Experiments:
[1] = system: H3255 (L858R) lung cancer cell line
Experimental: (§1) To validate this, we evaluated the cellular effects of bisphosphonates in EGFR-negative and EGFR-positive cancer cell lines. Mutated cancer cell lines, namely H520, H1666, H3255, HC827, A549, H1650, MCF-7, Caco-2, SW620, and SW480, were grown using standard protocols, and exposed to bisphosphonates. Thereafter, the cells were subject to the MTT assay to assess viability using a commercial kit. Additionally, in certain instances, annexin V staining was performed using a previously described protocol. Quantitative PCR (qPCR) for BCL, Bax, survivin, as well as for the thirteen bisphosphonate signature genes (FIG. 1) was carried out. Protein extracts were subject to SDS-PAGE followed by Western immunoblotting using antibodies to PARP, Akt (total and phosphorylated), Erk (total and phosphorylated), cyclin D1, cyclin B1, PCNA, and GAPDH (Santa Cruz, USA). Flow cytometry and colony forming assays were also performed.
(§2) Based on this prediction, and the common occurrence of these mutations in lung cancer patients, we examined the effect of available approved bisphosphonates on lung cancer cell lines that are driven by the L858R (H3255) or del746-750 (HCC827) mutation (FIGS. 6 and 7).

recombinant EGFR = recombinant EGFR (Homo sapiens, UniProt P00533); conditions: 100 μM, incubated 1 hour
Sequence of recombinant EGFR (P00533 25-1210): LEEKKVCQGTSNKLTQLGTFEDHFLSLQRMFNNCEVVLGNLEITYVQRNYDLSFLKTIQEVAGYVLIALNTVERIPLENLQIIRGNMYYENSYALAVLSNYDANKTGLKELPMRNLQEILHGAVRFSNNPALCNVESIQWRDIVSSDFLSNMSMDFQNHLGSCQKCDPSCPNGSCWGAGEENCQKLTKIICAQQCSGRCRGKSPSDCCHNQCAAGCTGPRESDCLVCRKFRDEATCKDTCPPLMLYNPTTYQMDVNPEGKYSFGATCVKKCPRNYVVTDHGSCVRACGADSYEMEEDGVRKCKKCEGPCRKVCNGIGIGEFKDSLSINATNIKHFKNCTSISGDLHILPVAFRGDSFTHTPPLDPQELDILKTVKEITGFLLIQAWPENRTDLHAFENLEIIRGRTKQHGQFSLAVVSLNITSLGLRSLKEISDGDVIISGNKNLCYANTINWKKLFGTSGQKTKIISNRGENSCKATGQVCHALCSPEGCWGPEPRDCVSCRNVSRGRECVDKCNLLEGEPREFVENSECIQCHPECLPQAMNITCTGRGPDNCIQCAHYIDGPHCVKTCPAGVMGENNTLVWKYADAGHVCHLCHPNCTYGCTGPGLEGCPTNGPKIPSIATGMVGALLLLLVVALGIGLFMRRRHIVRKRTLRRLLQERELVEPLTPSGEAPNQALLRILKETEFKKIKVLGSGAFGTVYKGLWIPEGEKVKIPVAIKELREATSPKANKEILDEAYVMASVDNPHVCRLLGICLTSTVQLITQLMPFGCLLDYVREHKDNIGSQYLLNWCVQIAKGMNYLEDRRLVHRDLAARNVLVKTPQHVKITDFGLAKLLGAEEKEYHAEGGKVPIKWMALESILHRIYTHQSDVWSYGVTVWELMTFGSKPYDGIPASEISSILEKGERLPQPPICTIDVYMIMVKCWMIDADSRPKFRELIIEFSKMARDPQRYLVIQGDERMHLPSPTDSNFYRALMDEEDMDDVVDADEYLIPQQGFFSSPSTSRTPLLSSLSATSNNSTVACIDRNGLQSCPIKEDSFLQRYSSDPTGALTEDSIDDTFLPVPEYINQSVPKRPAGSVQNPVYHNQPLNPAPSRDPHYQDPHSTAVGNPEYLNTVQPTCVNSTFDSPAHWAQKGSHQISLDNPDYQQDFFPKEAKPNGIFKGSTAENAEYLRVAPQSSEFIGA
Source text: We used a cell-free in vitro kinase assay using recombinant EGF receptor (EGFR) to determine whether bisphosphonates inhibit the EGFR directly or indirectly. […] A kinase reaction was stimulated with the addition of ATP, following which phosphorylation of the substrate […] was detected using a horseradish peroxidase (HRP)-conjugated anti-phosphotyrosine antibody.

[2] = system: HCC827 (del746-750) lung cancer cell line; format: cell-based
Experimental: as §1, §2

recombinant Her2 = biological target: T1, recombinant Her2 (Homo sapiens, UniProt P04626); test: Cell-free in vitro kinase assay using recombinant Her2 (Kinase-Glo); format: biochemical; conditions: incubated 30 minutes with 50 ng recombinant Her2
T1 construct: purchased GENWAY
T1 sequence (P04626 23-1255): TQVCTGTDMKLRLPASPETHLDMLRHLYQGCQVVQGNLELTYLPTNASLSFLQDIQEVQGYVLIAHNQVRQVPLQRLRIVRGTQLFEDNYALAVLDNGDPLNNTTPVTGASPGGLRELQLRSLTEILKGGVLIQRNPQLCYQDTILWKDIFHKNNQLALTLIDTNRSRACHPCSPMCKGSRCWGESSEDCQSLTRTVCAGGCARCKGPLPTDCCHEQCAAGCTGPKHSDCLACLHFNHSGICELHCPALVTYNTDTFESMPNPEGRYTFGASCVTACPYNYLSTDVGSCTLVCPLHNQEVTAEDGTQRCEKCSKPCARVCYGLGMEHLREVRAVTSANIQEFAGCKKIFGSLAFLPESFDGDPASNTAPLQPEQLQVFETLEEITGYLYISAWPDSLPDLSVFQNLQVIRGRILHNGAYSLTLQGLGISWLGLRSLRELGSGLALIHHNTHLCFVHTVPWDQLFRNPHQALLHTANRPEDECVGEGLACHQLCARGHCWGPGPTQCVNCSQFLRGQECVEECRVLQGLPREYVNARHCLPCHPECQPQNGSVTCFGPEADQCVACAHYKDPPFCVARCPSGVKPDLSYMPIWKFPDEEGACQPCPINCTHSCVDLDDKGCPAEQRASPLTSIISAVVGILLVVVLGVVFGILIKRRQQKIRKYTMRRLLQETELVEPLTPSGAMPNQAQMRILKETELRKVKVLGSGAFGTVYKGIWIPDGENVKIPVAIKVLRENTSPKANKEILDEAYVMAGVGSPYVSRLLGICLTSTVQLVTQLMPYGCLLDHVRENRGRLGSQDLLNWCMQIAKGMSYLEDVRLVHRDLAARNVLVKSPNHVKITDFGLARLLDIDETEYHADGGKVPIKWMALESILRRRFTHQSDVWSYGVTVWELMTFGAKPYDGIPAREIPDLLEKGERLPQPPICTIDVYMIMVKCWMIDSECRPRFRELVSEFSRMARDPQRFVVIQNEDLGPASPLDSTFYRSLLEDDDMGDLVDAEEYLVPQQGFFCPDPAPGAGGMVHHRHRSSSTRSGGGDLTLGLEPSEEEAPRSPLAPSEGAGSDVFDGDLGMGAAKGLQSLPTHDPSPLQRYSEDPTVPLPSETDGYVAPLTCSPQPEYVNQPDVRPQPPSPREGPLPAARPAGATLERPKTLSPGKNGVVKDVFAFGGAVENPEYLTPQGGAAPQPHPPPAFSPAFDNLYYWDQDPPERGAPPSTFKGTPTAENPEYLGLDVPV
Experimental: We also performed a cell-free in vitro kinase assay to determine if bisphosphonates could inhibit Her2 activity. Briefly, Ert, ZA, Ris, MA, or Til (doses as shown in FIG. 28A) were incubated for 30 minutes with 50 ng recombinant Her2 or EGFR^L858R protein (GENWAY) at 4° C. and tyrosine kinase activity was measured. Following addition of assay buffer (SIGMA) which contained the poly(Glu, Tyr) (4:1) substrate and ATP, the kinase reaction was allowed to proceed for 30 minutes at 30° C. An equal volume of Kinase-Glo substrate (PROMEGA) was then added, and luminescence read manually (TD-20/20, TURNER DESIGN).

osteoclast formation = test: Osteoclast formation assays in vitro; format: cell-based; conditions: data not shown
Experimental: We interrogated CMAP with this gene signature to identify chemicals with similar genomic mechanisms to bisphosphonates. Drug-drug matching was performed by a nonparametric, rank-based algorithm using Kolmogorov-Smirnov statistic. Gene Set Enrichment Analysis (GSEA) examined shared mechanisms of action to reveal both mimics and anti-mimics of a given compound or disease. Of the chemicals displaying the highest enrichment scores, the top two were anti-cancer agents, namely the PARP inhibitor 1,5-isoquinolinediol, and a first-generation EGFR kinase inhibitor tyrphostin AG1478 (FIG. 2). These compounds were confirmed as “true” bisphosphonate mimetics using osteoclast formation assays in vitro. As with bisphosphonates, osteoclast formation was inhibited by both 1,5-isoquinolinediol and tyrphostin AG1478, the latter in a concentration-dependent manner (data not shown).

BT474 cells = test: MTT cell viability, BT474; format: cell-based; conditions: BT474, overexpress Her2
Source text: (§3) Thereafter, the cells were subject to the MTT assay to assess viability using a commercial kit.

[3] = system: EGFR negative (SW620) colon cancer cell line; test: Colony formation (clonogenic assay), SW620; format: cell-based
Experimental: as §1

[4] = system: H1975 (L858R/T790M) lung adenocarcinoma cell line; test: Colony formation, H1975; format: cell-based
Experimental: To test this hypothesis, colony formation and cell viability assays were carried out using a L858R/T790M-derived lung adenocarcinoma cell line, H1975.

[5] = system: EGFR-expressing (MDA-MB-231) breast cancer cell line; test: FACS cell cycle profile (sub-G1), MDA-MB-231; format: cell-based
MDA-MB-231 cells [6] = test: Colony formation, MDA-MB-231; format: cell-based; conditions: tiludronate 20 μM, data not shown
[7] = system: HER2-expressing (BT474) breast cancer cell line; test: FACS cell cycle profile (sub-G1), BT474; format: cell-based
[8] = system: EGFR-expressing colon cells (SW480); test: Colony formation (clonogenic assay), SW480; format: cell-based
Experimental: as §1

MDA-MB-231 cells [9] = test: MTT cell viability, MDA-MB-231; format: cell-based; conditions: MDA-MB-231, overexpress EGFR
Source text: as §3

[10] = system: non-EGFR, non-HER2-expressing (MDA-MB-453) breast cancer cell line; test: FACS cell cycle profile (sub-G1), MDA-MB-453; format: cell-based
HCC827 cells [11] = test: Colony formation, HCC827; format: cell-based; conditions: tiludronate 40 μM
Experimental: as §1, §2

HCC827 cells [12] = conditions: mouse, in vivo
Experimental: To verify that that the in vitro experiments described above translated to in vivo efficacy, the effect of bisphosphonates and EGFR inhibitors on tumors in mice were evaluated. HCC827 cells (1×10^8) were injected into the right flank of 6- to 8-week-old female BALB/c nu/nu mice. […] A total of 10 treatments were given, with a 48-hour rest period between injections. Tumor volumes were measured during the rest period following each treatment.
To verify the in vivo mechanism of action, Western analysis and immunohistochemistry were performed on tumor samples at the end of the 10-treatment course. For Western analysis, whole cell protein extracts were obtained with radio-immunoprecipitation assay buffer following standard protocols (Santa Cruz Biotechnology). […] Biotinylated anti-rabbit IgG (E0432, Dako) was used as secondary antibody. Staining was visualized using DAB, and slides were counterstained with hematoxylin, dehydrated, and mounted. Bright-field and fluorescent images were captured using a Stereoscope or Axioplan 2 IE microscope (Zeiss).

[13] = system: lung cancer cell line A549; conditions: A549, wild type EGFR, ras mutation driven
Experimental: as §1

HCC827 cells [14] = test: FACS analysis and Western blotting for cell cycle and apoptosis, HCC827; format: cell-based
Experimental: as §1

- EGFR kinase activity (recombinant EGFR): directly inhibited EGFR kinase activity
Structure (SMILES): NCCCC(O)(P(=O)(O)O)P(=O)(O)O [alendronate]
- cell viability / cell survival [1]: inhibiting cell survival
- cell viability / cell survival [2]: inhibiting cell survival

Structure (SMILES): NCCC(O)(P(=O)(O)O)P(=O)(O)O [pamidronate]
- cell viability / cell survival [2]: failed to affect HCC827 cell viability

Structure (SMILES): O=P(O)(O)C(O)(Cc1cccnc1)P(=O)(O)O [risedronate]
- cell viability / cell survival [1]: inhibiting cell survival
- Her2 tyrosine kinase activity (recombinant Her2): inhibit the tyrosine kinase activity of Her2
- cell viability / cell survival [2]: inhibiting cell survival

Structure (SMILES): O=P(O)(O)C(NC1CCCCCC1)P(=O)(O)O [incadronate]
- cell viability / cell survival [1]: inhibiting cell survival
- cell viability / cell survival [2]: inhibiting cell survival

Structure (SMILES): O=P(O)(O)C(O)(Cc1cnc2ccccn12)P(=O)(O)O [minodronic acid]
- cell viability / cell survival [1]: inhibiting cell survival; also recorded: two most potent
- Her2 tyrosine kinase activity (recombinant Her2): inhibit the tyrosine kinase activity of Her2
- cell viability / cell survival [2]: inhibiting cell survival; also recorded: two most potent

Structure (SMILES): Oc1cccc2c(O)nccc12 [1,5-isoquinolinediol]
- osteoclast formation (osteoclast formation): inhibited

Structure (SMILES): COc1cc2ncnc(Nc3cccc(Cl)c3)c2cc1OC [tyrphostin AG1478]
- osteoclast formation (osteoclast formation): inhibited

Structure (SMILES): O=P(O)(O)C(Sc1ccc(Cl)cc1)P(=O)(O)O [tiludronate]
- cell viability / cell survival [1]: failed to affect cell viability; also recorded: without effect
- cell viability (BT474 cells): has no effect
- colony formation [3]: has no effect
- colony formation [4]: did not affect colony formation
- sub-G1 fraction (apoptosis) [5]: has no effect
- Her2 tyrosine kinase activity (recombinant Her2): inhibit the tyrosine kinase activity of Her2
- colony formation (MDA-MB-231 cells [6]): not seen
- sub-G1 fraction (apoptosis) [7]: has no effect
- cell viability / cell survival [2]: failed to affect cell viability; also recorded: without effect
- colony formation [8]: has no effect
- cell viability (MDA-MB-231 cells [9]): has no effect
- sub-G1 fraction (apoptosis) [10]: has no effect
- colony formation (HCC827 cells [11]): not seen

Structure (SMILES): NCCCCCC(O)(P(=O)(O)O)P(=O)(O)O [neridronate]
- cell viability / cell survival [2]: failed to affect HCC827 cell viability

Structure (SMILES): C#Cc1cccc(Nc2ncnc3cc(OCCOC)c(OCCOC)cc23)c1 [erlotinib]
- AKT phosphorylation in tumor samples (HCC827 cells [12]): inhibited AKT phosphorylation
- CD31 expression (blood vessels) in tumors (HCC827 cells [12]): inhibited CD31 expression
- ERK phosphorylation in tumor samples (HCC827 cells [12]): did not inhibit ERK phosphorylation
- colony formation [4]: did not inhibit colony formation
- cell viability [13]: poorly responsive
- Her2 tyrosine kinase activity (recombinant Her2): inhibit the tyrosine kinase activity of Her2
- cell cycle and apoptosis (HCC827 cells [14]): mainly increased PARP expression and apoptosis
